Substitutions are numbered along the chain they refer to.

We go through 1 molecule from article PMC5085999, “Structural Basis for Differences in Dynamics Induced by Leu Versus Ile Residues in the CD Loop of Kir Channels” (Molecular Neurobiology, 2015).

Common to all, as to test: inside-out macropatch dose-response of channel expressed in Xenopus oocytes
Format in all cases: cell-based

The target in assay [1] is T1, Kir2.1 (Mus musculus, UniProt P35561).
T1 construct: gene Kcnj2
T1 sequence (P35561 1-428): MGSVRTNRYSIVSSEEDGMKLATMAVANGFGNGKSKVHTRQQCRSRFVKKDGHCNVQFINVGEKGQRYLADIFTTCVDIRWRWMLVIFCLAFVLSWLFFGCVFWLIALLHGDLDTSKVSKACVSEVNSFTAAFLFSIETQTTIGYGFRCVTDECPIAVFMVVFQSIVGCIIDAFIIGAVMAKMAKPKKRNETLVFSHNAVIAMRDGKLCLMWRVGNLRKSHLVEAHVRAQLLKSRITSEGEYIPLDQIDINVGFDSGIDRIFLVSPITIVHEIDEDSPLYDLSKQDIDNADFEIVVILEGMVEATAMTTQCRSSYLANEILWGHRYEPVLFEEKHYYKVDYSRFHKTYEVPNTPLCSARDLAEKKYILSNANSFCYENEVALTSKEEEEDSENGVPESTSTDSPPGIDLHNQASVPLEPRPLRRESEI

In assay [2] the target is T2, Kir2.2 (Homo sapiens, UniProt Q14500).
T2 construct: gene KCNJ12
T2 sequence (Q14500 1-433): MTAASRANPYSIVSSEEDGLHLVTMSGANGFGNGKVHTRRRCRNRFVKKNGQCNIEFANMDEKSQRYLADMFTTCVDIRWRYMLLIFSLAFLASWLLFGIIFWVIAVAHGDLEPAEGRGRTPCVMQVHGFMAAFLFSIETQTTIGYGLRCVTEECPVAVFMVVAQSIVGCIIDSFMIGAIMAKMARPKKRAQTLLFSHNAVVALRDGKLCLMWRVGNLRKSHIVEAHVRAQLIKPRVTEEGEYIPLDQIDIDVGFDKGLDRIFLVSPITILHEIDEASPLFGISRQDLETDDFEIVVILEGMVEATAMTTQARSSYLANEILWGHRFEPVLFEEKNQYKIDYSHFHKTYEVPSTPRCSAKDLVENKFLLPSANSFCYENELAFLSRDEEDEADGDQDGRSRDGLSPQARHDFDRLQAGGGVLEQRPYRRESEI

The target of assay [3] is T3, Kir2.1 (Mus musculus, UniProt P35561, L222I).
T3 construct: gene Kcnj2
T3 sequence (P35561 1-428 L222I): T1 sequence (P35561 1-428) with L222I

The target in assay [4] is T4, Kir2.2 (Homo sapiens, UniProt Q14500, I223L).
T4 construct: gene KCNJ12
T4 sequence (Q14500 1-433 I223L): T2 sequence (Q14500 1-433) with I223L

Regarding `CCCCCCCC(=O)OC[C@H](COP(=O)(O)O[C@@H]1[C@H](O)[C@H](O)[C@@H](OP(=O)(O)O)[C@H](OP(=O)(O)O)[C@H]1O)OC(=O)CCCCCCC` [diC8 PIP2], the EC50 on Kir2.1 [1] is 2.89 ± 0.31 µM; on Kir2.2 [2], 6.14 ± 0.45 µM; at Kir2.1 [3], 14 ± 0.98 µM; on Kir2.2 [4] it was 1.9 ± 0.23 µM.

As usually defined, the EC50 is the concentration at which the effect is half-maximal. A higher EC50 goes with a less potent agent.
